One test has as its system COLO320DM cells. It counts as cell-based. The note with it: COLO320DM cells, read-out: COLO320DM Proliferation Abs IC50. As for the experimental part: COLO320DM proliferation assay IC50: In some embodiments, inhibition of cell proliferation by provided technologies were assessed using cell lines related to or from certain conditions, disorders or diseases. In some embodiments, cell proliferation was assessed in COLO320DM cells. In some embodiments, assessment was performed using the following procedure: On Day 1, cultured COLO320DM cells in a T75 flask were trypsinized in 3 mL of 0.25% trypsin/EDTA for 5 min and quenched with 10 mL RPMI-1640+4% HI FBS assay media. The cells were spun down at 1200 rpm for 5 min, the cell pellet collected and re-suspended at 5000 cells/mL in assay media. Using a Combi liquid handler, cells were dispensed (50 uL, 250 cells/well) into three 384 well plates. Plates were incubated at 37° C., […]. On day 2, compounds were added. A liquid handling system was used to prepare the compound dilution and dispense compound into assay plates. The compounds were serially diluted 1/2 in 90% DMSO to create a 7 point dose curve. From compound plate, 100 nL of compound were dispensed directly into wells of the assay plates to create a dose curve starting at 20 uM and ending at 313 nM. Assay plates were incubated at 37° C., […]. On day 6, assay plates were removed from the incubator and allowed to sit at room temperature for 30 min. Using a liquid handler, 20 uL of CellTiter Glo reagent was added to each well. The assay plates were shaken for 2 min and allowed to sit on the bench for 10-15 minutes. The assay plates were read using the CellTiter Glo protocol on a GloMax microplate reader, and the data analyzed using GraphPad Prism.

For test [1], the target named is T1, beta-catenin/TCF4 engagement (Homo sapiens, UniProt P35222).
T1 construct: expressed in transfected cells; host or cells: HEK293
T1 sequence (P35222 1-781): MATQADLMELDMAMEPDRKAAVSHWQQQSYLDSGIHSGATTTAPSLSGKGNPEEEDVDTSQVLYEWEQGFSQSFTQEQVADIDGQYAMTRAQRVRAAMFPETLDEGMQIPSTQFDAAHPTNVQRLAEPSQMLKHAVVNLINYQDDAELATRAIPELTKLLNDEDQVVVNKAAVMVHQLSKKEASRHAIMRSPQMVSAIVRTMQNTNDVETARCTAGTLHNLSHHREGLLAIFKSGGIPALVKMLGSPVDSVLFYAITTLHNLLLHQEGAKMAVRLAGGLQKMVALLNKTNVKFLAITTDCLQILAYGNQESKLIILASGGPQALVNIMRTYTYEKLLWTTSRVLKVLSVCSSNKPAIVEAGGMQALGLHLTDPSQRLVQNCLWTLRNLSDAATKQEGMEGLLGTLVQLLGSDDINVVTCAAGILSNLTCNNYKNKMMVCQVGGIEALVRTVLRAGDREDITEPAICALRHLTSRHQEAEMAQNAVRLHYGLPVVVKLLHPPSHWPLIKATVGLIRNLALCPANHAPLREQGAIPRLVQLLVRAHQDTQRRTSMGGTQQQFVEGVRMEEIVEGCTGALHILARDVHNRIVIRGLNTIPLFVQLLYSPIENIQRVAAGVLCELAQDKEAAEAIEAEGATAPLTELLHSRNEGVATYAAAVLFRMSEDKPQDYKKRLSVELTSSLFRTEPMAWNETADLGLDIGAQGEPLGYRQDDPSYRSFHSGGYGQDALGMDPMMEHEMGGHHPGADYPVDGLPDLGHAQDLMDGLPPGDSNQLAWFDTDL
Briefly: Nano-BRET target engagement assay (B-cat-Halo & TCF4-Luc in HEK293 cells). It counts as cell-based. In general terms: BRET reads energy transfer from a luciferase to a nearby fluorophore.

The target of test [2] is T2, full-length beta-Catenin (Uniprot ID P35222) (Homo sapiens, UniProt P35222).
T2 construct: 10 nM full-length beta-Catenin (Uniprot ID P35222)
T2 sequence (P35222 1-781): T1 sequence (P35222 1-781)
Description: Fluorescence polarization IC50 (beta-catenin / 5FAM-TCF4 10-53 competition). The test is classed as binding. Conditions: fluorescence polarization. On the technique in general: Polarisation of emitted light reports the rotation of a fluorescent probe.

Setting [3] is: absolute IC50, read-out: NanoBRET Abs IC50.

The record followed here is patent US20240116985A1, “STAPLED PEPTIDES AND METHODS THEREOF” (priority 2020, published 2024).

Where two headings read alike, the source gives them in different places. Where only a bound is given, the exact number is not on record here.

`CC(=O)N1CCC[C@]12CC=CCCCC1(CCCC=CCCCOC(=O)N3CC[C@@](C(=O)N[C@@H](Cc4ccccc4Cl)C(=O)N[C@@H](Cc4csc5ccccc45)C(=O)N[C@@H](CC(N)=O)C(N)=O)(C3)NC(=O)[C@H](CC(C)C)NC(=O)[C@H](Cc3ccccc3)NC(=O)[C@H](C)NC(=O)[C@H](C)NC(=O)[C@H](Cc3cccc(C(=O)O)c3)NC(=O)[C@H](CC(=O)O)NC1=O)NC(=O)[C@H](CC(C)(C)C)NC(=O)[C@H](CC(=O)O)NC2=O` (stereo partly drawn) [I-1904, Ac-PL3-Asp-Npg-B5-Asp-3COOHF-Ala-Ala-Phe-Leu-PyrS2-2C1F-BztA-Asn-NH2]: the results for the IC50 (in the test with COLO320DM cells; in test [1] (read-out: NanoBRET Abs IC50); in test [2] (read-out: beta-Catenin FP IC50)) were over 20000 nM, 4.2 µM and 15 nM, respectively.

For the compound `CC(=O)N1CCC[C@]12CC=CCCCC1(CCCC=CCCCOC(=O)N3CC[C@@](C(=O)N[C@@H](Cc4ccccc4Cl)C(=O)N[C@@H](Cc4csc5ccccc45)C(=O)N[C@@H](CC(N)=O)C(=O)N[C@@H](C)C(=O)N[C@@H](C)C(=O)N[C@@H](C)C(N)=O)(C3)NC(=O)[C@H](CC(C)C)NC(=O)[C@H](Cc3ccccc3)NC(=O)[C@H](C)NC(=O)[C@H](C)NC(=O)[C@H](Cc3cccc(C(=O)O)c3)NC(=O)[C@H](CC(=O)O)NC1=O)NC(=O)[C@H](CC(C)(C)C)NC(=O)[C@H](CC(=O)O)NC2=O` (stereo partly drawn) [I-2040, Ac-PL3-Asp-Npg-B5-Asp-3COOHF-Ala-Ala-Phe-Leu-PyrS2-2C1F-BztA-Asn-Ala-Ala-Ala-NH2], the IC50 in the test on COLO320DM cells was over 20000 nM; in test [1] (read-out: NanoBRET Abs IC50), 2.8 µM; in test [2] (read-out: beta-Catenin FP IC50), 24 nM.

With `CC(=O)N1CCC[C@]12CC=CCCCC1(CCCC=CCCCOC(=O)N3CC[C@@](C(=O)N[C@@H](Cc4ccsc4)C(=O)N[C@@H](Cc4csc5ccccc45)C(=O)N[C@@H](CC(N)=O)C(N)=O)(C3)NC(=O)[C@H](Cc3ccccc3)NC(=O)[C@H](Cc3ccccc3)NC(=O)[C@H](C)NC(=O)[C@H](C)NC(=O)[C@H](Cc3cccc(C(=O)O)c3)NC(=O)[C@H](CC(=O)O)NC1=O)NC(=O)[C@H](CC(C)(C)C)NC(=O)[C@H](CC(=O)O)NC2=O` (stereo partly drawn) [I-2044, Ac-PL3-Asp-Npg-B5-Asp-3COOHF-Ala-Ala-Phe-Phe-PyrS2-3Thi-BztA-Asn-NH2], the results for the IC50 (in the test on COLO320DM cells; in test [1] (read-out: NanoBRET Abs IC50); in test [2] (read-out: beta-Catenin FP IC50)) were over 20000 nM, 2.6 µM and 9 nM, respectively.

`CC(=O)N1CCC[C@]12CC=CCCCC1(CCCC=CCCCOC(=O)N3CC[C@@](C(=O)N[C@@H](Cc4ccsc4)C(=O)N[C@@H](Cc4csc5ccccc45)C(=O)N[C@@H](CC(N)=O)C(=O)N[C@@H](C)C(=O)N[C@@H](C)C(=O)N[C@@H](C)C(=O)N[C@@H](C)C(=O)N[C@@H](C)C(N)=O)(C3)NC(=O)[C@H](CC(C)C)NC(=O)[C@H](Cc3ccccc3)NC(=O)[C@H](C)NC(=O)[C@H](C)NC(=O)[C@H](Cc3cccc(C(=O)O)c3)NC(=O)[C@H](CC(=O)O)NC1=O)NC(=O)[C@H](CC(C)(C)C)NC(=O)[C@H](CC(=O)O)NC2=O` (stereo partly drawn) [I-2268, Ac-PL3-Asp-Npg-B5-Asp-3COOHF-Ala-Ala-Phe-Leu-PyrS2-3Thi-BztA-Asn-Ala-Ala-Ala-Ala-Ala-NH2]: the IC50 in the test on COLO320DM cells (absolute IC50) came to 4300 nM; in test [1] (setting [3]), 3.1 µM; in test [2] (read-out: beta-Catenin FP IC50) it was 13 nM.

On to `CC(=O)N1CCC[C@]12CC=CCCCC1(CCCC=CCCCOC(=O)N3CC[C@@](C(=O)N[C@@H](Cc4ccsc4)C(=O)N[C@@H](Cc4csc5ccccc45)C(=O)N[C@@H](CC(N)=O)C(=O)N[C@@H](C)C(=O)N[C@@H](C)C(=O)N[C@@H](C)C(=O)N[C@@H](C)C(=O)N[C@@H](C)C(=O)N[C@@H](C)C(=O)N[C@@H](C)C(N)=O)(C3)NC(=O)[C@H](CC(C)C)NC(=O)[C@H](Cc3ccccc3)NC(=O)[C@H](C)NC(=O)[C@H](C)NC(=O)[C@H](Cc3cccc(C(=O)O)c3)NC(=O)[C@H](CC(=O)O)NC1=O)NC(=O)[C@H](CC(C)(C)C)NC(=O)[C@H](CC(=O)O)NC2=O` (stereo partly drawn) [I-2269], for which the IC50 was determined as 3900 nM in the test with COLO320DM cells (absolute IC50); 2.3 µM in test [1] (NanoBRET Abs IC50 (uM), absolute IC50); 20 nM in test [2] (beta-Catenin FP IC50 (nM)).

For the compound `CC(=O)N1CCC[C@]12CC=CCCCC1(CCCC=CCCCOC(=O)N3CC[C@@](C(=O)N[C@@H](Cc4ccsc4)C(=O)N[C@@H](Cc4csc5ccccc45)C(=O)N[C@@H](CC(N)=O)C(=O)N[C@@H](C)C(=O)NC(C)(C)C(=O)N[C@@H](C)C(N)=O)(C3)NC(=O)[C@H](CC(C)C)NC(=O)[C@H](Cc3ccccc3)NC(=O)[C@H](C)NC(=O)[C@H](C)NC(=O)[C@H](Cc3cccc(C(=O)O)c3)NC(=O)[C@H](CC(=O)O)NC1=O)NC(=O)[C@H](CC(C)(C)C)NC(=O)[C@H](CC(=O)O)NC2=O` (stereo partly drawn) [I-2271, Ac-PL3-Asp-Npg-B5-Asp-3COOHF-Ala-Ala-Phe-Leu-PyrS2-3Thi-BztA-Asn-Ala-Aib-Ala-NH2], the values for the IC50 (in the test with COLO320DM cells (absolute IC50); in test [1] (setting [3]); in test [2] (read-out: beta-Catenin FP IC50)) were 9000 nM, 2.3 µM and 13 nM, respectively.

Turning to `CC(=O)N1CCC[C@]12CC=CCCCC1(CCCC=CCCCOC(=O)N3CC[C@@](C(=O)N[C@@H](Cc4ccsc4)C(=O)N[C@@H](Cc4csc5ccccc45)C(=O)N[C@@H](CC(N)=O)C(=O)N[C@@H](CC(C)C)C(N)=O)(C3)NC(=O)[C@H](CC(C)C)NC(=O)[C@H](Cc3ccccc3)NC(=O)[C@H](C)NC(=O)[C@H](C)NC(=O)[C@H](Cc3cccc(C(=O)O)c3)NC(=O)[C@H](CC(=O)O)NC1=O)NC(=O)[C@H](CC(C)(C)C)NC(=O)[C@H](CC(=O)O)NC2=O` (stereo partly drawn) [I-2274, Ac-PL3-Asp-Npg-B5-Asp-3COOHF-Ala-Ala-Phe-Leu-PyrS2-3Thi-BztA-Asn-Leu-NH2], the IC50 stood at 6200 nM in the test with COLO320DM cells (absolute IC50), 2 µM in test [1] (setting [3]) and 10 nM in test [2] (read-out: beta-Catenin FP IC50).

In the case of `CC(=O)N1CCC[C@]12CC=CCCCC1(CCCC=CCCCOC(=O)N3CC[C@@](C(=O)N[C@@H](Cc4ccccc4C(F)(F)F)C(=O)N[C@@H](Cc4csc5ccccc45)C(=O)N[C@@H](CCC(=O)N(C)C)C(N)=O)(C3)NC(=O)[C@H](CC(C)C)NC(=O)[C@H](Cc3ccccc3)NC(=O)[C@H](C)NC(=O)[C@H](CCC(=O)N(C)C)NC(=O)[C@H](Cc3cccc(C(=O)O)c3)NC(=O)[C@H](CC(=O)O)NC1=O)NC(=O)[C@H](CC(C)(C)C)NC(=O)[C@H](CC(=O)O)NC2=O` (stereo partly drawn) [I-2300, Ac-PL3-Asp-Npg-B5-Asp-3COOHF-[NMe2]GlnR-Ala-Phe-Leu-PyrS2-2F3MeF-BztA-INMe2]GlnR-NH2], the IC50 with COLO320DM cells (absolute IC50) was over 20000 nM; in test [1] (setting [3]), 1.2 µM; in test [2] (read-out: beta-Catenin FP IC50), 6 nM.

In the case of `CC(=O)N1CCC[C@]12CC=CCCCC1(CCCC=CCCCOC(=O)N3CC[C@@](C(=O)N[C@@H](Cc4ccccc4C(F)(F)F)C(=O)N[C@@H](Cc4csc5ccccc45)C(=O)N[C@@H](C)C(N)=O)(C3)NC(=O)[C@H](CC(C)C)NC(=O)[C@H](Cc3ccccc3)NC(=O)[C@H](C)NC(=O)[C@H](CCC(=O)N3CCOCC3)NC(=O)[C@H](Cc3cccc(C(=O)O)c3)NC(=O)[C@H](CC(=O)O)NC1=O)NC(=O)[C@H](CC(C)(C)C)NC(=O)[C@H](CC(=O)O)NC2=O` (stereo partly drawn) [I-2315, Ac-PL3-Asp-Npg-B5-Asp-3COOHF-[Morph]GlnR-Ala-Phe-Leu-PyrS2-2F3MeF-BztA-Ala-NH2], the IC50 with COLO320DM cells (absolute IC50) is over 20000 nM; in test [1] (setting [3]), 1.2 µM; in test [2] (read-out: beta-Catenin FP IC50), 5 nM.
